This note sets out measurements from patent US11066414B2, “Cot modulators and methods of use thereof” (Gilead Sciences, Inc., priority 2015, dated 2021).

One assay concerns TNFα. The experiment in a line: Cot Monocyte TNFα Cell Based Assay.
The next assay concerns the target Human Cot (Homo sapiens (Human), UniProt P41279). The experiment in a line: High Throughput Cot Biochemical Assay. The following applies: Cot HTRF (TR-FRET KinEASE) biochemical assay, 400 μM ATP. In general terms: Time-resolved FRET reads energy transfer from a long-lived donor to a nearby acceptor.
The mark [1] stands for this setting: Homo sapiens, Monocyte, read-out: EC50 TNF, LPS-stimulated human monocytes, TNFα TR-FRET.
Where [2] appears, read: read-out: EC50 TNF, LPS-stimulated human monocytes, TNFα TR-FRET.

Where two headings read alike, the source gives them in different places.

Chain of Human Cot (P41279 30-397): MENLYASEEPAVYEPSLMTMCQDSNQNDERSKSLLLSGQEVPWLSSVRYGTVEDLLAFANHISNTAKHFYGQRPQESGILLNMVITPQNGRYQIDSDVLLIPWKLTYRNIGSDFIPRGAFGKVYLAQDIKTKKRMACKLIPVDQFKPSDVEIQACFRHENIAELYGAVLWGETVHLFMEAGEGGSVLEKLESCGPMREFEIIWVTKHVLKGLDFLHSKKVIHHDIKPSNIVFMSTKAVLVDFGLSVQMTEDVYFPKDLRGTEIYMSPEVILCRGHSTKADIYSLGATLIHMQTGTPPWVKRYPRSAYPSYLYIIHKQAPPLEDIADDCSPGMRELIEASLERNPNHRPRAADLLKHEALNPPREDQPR

The term EC50 denotes the concentration that produces a half-maximal response. What is called IC50 is the midpoint of a concentration-inhibition curve. Take `COc1ccc2c([C@H](Nc3cc(C#N)c4ncc(C#N)c(NCC(C)(C)C)c4c3)c3cn(C4(C(F)(F)F)CC4)nn3)cccc2n1` [Example 811, (S)-6-(((2-methoxyquinolin-5-yl)(1-(1-(trifluoromethyl)cyclopropyl)-1H-1,2,3-triazol-4-yl)methyl)amino)-4-(neopentylamino)quinoline-3,8-dicarbonitrile]: the EC50 with TNFα (setting [1]) is 0.333 µM. At Human Cot (IC50 HTRF), this compound came in with an IC50 of 0.011 µM.

With `COc1nccc2c([C@H](Nc3cc(C#N)c4ncc(C#N)c(NCC(C)(C)C)c4c3)c3cn(C4(C(F)(F)F)CC4)nn3)cccc12` [Example 812, (S)-6-(((1-methoxylsoquinolin-5-yl)(1-(1-(trifluoromethyl)cyclopropyl)-1H-1,2,3-triazol-4-yl)methyl)amino)-4-(neopentylamino)quinoline-3,8-dicarbonitrile], in the assay on TNFα (setting [2]), the EC50 was found to be 0.068 µM. Besides, the IC50 on Human Cot (read-out: IC50 HTRF) is 0.005 µM.

On to `CC1(n2cc([C@@H](Nc3cc(C#N)c4ncc(C#N)c(NCC(C)(C)C(F)(F)F)c4c3)c3ccc(F)c4ncccc34)nn2)CC1` [Example 813, (S)-6-(((8-fluoroquinolin-5-yl)(1-(1-methylcyclopropyl)-1H-1,2,3-triazol-4-yl)methyl)amino)-4-((3,3,3-trifluoro-2,2-dimethylpropyl)amino)quinoline-3,8-dicarbonitrile], for which the EC50 in the assay with TNFα (setting [1]) was found to be 0.024 µM. Moreover, the IC50 on Human Cot (IC50 HTRF) stood at 0.002 µM.

In the case of `CC(C)(C)CNc1c(C#N)cnc2c(C#N)cc(N[C@H](c3cn(C45CC(C4)C5)nn3)c3ccc(F)c4ncccc34)cc12` [Example 814, (S)-6-(((1-(bicyclo[1.1.1]pentan-1-yl)-1H-1,2,3-triazol-4-yl)(8-fluoroquinolin-5-yl)methyl)amino)-4-(neopentylamino)quinoline-3,8-dicarbonitrile], the EC50 in the assay with TNFα (setting [1]) came to 0.016 µM. In addition, at Human Cot (IC50 HTRF), the half-inhibitory concentration (IC50) was 0.002 µM.

Turning to `CC(C)(C)CNc1c(C#N)cnc2c(C#N)cc(N[C@@H](c3ccc4cccnc4c3)c3cn(C4(C(F)F)CC4)nn3)cc12` [Example 818, (S)-6-(((1-(1-(difluoromethyl)-cyclopropyl)-1H-1,2,3-triazol-4-yl)(quinolin-7-yl)methyl)amino)-4-(neopentylamino)quinoline-3,8-dicarbonitrile], in the assay with TNFα (setting [1]), the EC50 amounted to 0.176 µM. The compound further had an IC50 against Human Cot (IC50 HTRF) of 0.006 µM.

With `COc1nccc2c([C@H](Nc3cc(C#N)c4ncc(C#N)c(NCC(C)(C)C(F)(F)F)c4c3)c3cn(C4(C)CC4)nn3)cccc12` [Example 819, (S)-6-(((1-methoxylsoquinolin-5-yl)(1-(1-methylcyclopropyl)-1H-1,2,3-triazol-4-yl)methyl)amino)-4-((3,3,3-trifluoro-2,2-dimethylpropyl)amino)quinoline-3,8-dicarbonitrile], the concentration for a half-maximal effect (EC50) in the assay on TNFα (setting [2]) was determined as 0.028 µM. The IC50 at Human Cot (read-out: IC50 HTRF) is 0.002 µM.

As for `COc1nccc2c([C@H](Nc3cc(C#N)c4ncc(C#N)c(NCC(C)(C)C(F)(F)F)c4c3)c3cn(C45CC(C4)C5)nn3)cccc12` [Example 820, (S)-6-(((1-(bicyclo[1.1.1]pentan-1-yl)-1H-1,2,3-triazol-4-yl)(1-methoxylsoquinolin-5-yl)methyl)amino)-4-((3,3,3-trifluoro-2,2-dimethylpropyl)amino)quinoline-3,8-dicarbonitrile], in the assay with TNFα (setting [2]), the EC50 turned out to be 0.033 µM. For the same compound, the 50% inhibitory concentration (IC50) on Human Cot (read-out: IC50 HTRF) amounted to 0.003 µM.

For `COc1nccc2c([C@H](Nc3cc(C#N)c4ncc(C#N)c(NCC(C)(C)C(F)(F)F)c4c3)c3cn(C4(C(F)F)CC4)nn3)cccc12` [Example 821], the EC50 in the assay with TNFα (setting [2]) worked out at 0.06 µM. For the same compound, the half-maximal inhibitory concentration (IC50) at Human Cot (read-out: IC50 HTRF) is 0.003 µM.

For `CC(C)(C)CNc1c(C#N)cnc2c(C#N)cc(N[C@@H](c3ccc4nccn4c3)c3cn(C4(C(F)(F)F)CC4)nn3)cc12` [Example 822, (S)-6-((imidazo[1,2-a]pyridin-6-yl(1-(1-(trifluoromethyl)cyclopropyl)-1H-1,2,3-triazol-4-yl)methyl)amino)-4-(neopentylamino)quinoline-3,8-dicarbonitrile], the EC50 in the assay on TNFα (setting [1]) was 0.687 µM. The same compound gave an IC50 at Human Cot (IC50 HTRF) of 0.01 µM.

Consider `COc1nccc2c([C@H](Nc3cc(C#N)c4ncc(C#N)c(NCC(C)(C)C)c4c3)c3cn([C@@H](C)CF)nn3)cccc12` [Example 824, 6-(((S)-(1-((S)-1-fluoropropan-2-yl)-1H-1,2,3-triazol-4-yl)(1-methoxylsoquinolin-5-yl)methyl)amino)-4-(neopentylamino)quinoline-3,8-dicarbonitrile], for which the EC50 in the assay with TNFα (setting [2]) came to 0.059 µM. The IC50 on Human Cot (read-out: IC50 HTRF) amounted to 0.005 µM.

`COc1nccc2c([C@H](Nc3cc(C#N)c4ncc(C#N)c(NCC(C)(C)C)c4c3)c3cn(C(CF)CF)nn3)cccc12` [Example 825, (S)-6-(((1-(1,3-difluoropropan-2-yl)-1H-1,2,3-triazol-4-yl)(1-methoxylsoquinolin-5-yl)methyl)amino)-4-(neopentylamino)quinoline-3,8-dicarbonitrile]: the EC50 in the assay on TNFα (setting [2]) worked out at 0.113 µM. The IC50 at Human Cot (read-out: IC50 HTRF) came out at 0.007 µM.

For the compound `CC(C)(C)CNc1c(C#N)cnc2c(C#N)cc(N[C@@H](c3ccc(C#N)nc3)c3cn(C4(C(F)(F)F)CC4)nn3)cc12` [Example 826, (S)-6-(((6-cyanopyridin-3-yl)(1-(1-(trifluoromethyl)cyclopropyl)-1H-1,2,3-triazol-4-yl)methyl)amino)-4-(neopentylamino)quinoline-3,8-dicarbonitrile], in the assay with TNFα (setting [1]), the EC50 was 1 µM. Moreover, at Human Cot (IC50 HTRF), inhibition was half-maximal at 0.051 µM (IC50).

As to `Cc1nc(F)ccc1[C@H](Nc1cc(C#N)c2ncc(C#N)c(NCC(C)(C)C(F)(F)F)c2c1)c1cn(C(C)(C)C)nn1` [Example 827, (S)-6-(((1-(tert-butyl)-1H-1,2,3-triazol-4-yl)(6-fluoro-2-methylpyridin-3-yl)methyl)amino)-4-((3,3,3-trifluoro-2,2-dimethylpropyl)amino)quinoline-3,8-dicarbonitrile], the EC50 with TNFα (setting [1]) came to 0.038 µM. This compound also showed a half-maximal inhibitory concentration (IC50) against Human Cot (IC50 HTRF) of 0.002 µM.

As for `Cc1ccc([C@H](Nc2cc(C#N)c3ncc(C#N)c(NCC(C)(C)C)c3c2)c2cn(C3(C(F)(F)F)CC3)nn2)cn1` [Example 828, (S)-6-(((6-methylpyridin-3-yl)(1-(1-(trifluoromethyl)cyclopropyl)-1H-1,2,3-triazol-4-yl)methyl)amino)-4-(neopentylamino)quinoline-3,8-dicarbonitrile], the 50% effective concentration (EC50) in the assay with TNFα (setting [1]) stood at 0.253 µM. Besides, on Human Cot (IC50 HTRF), the 50% inhibitory concentration (IC50) worked out at 0.022 µM.

`Cc1ccc([C@H](Nc2cc(C#N)c3ncc(C#N)c(NCC(C)(C)C)c3c2)c2cn(C3(C(F)F)CC3)nn2)c(C)n1` [Example 829, (S)-6-(((1-(1-(difluoromethyl)-cyclopropyl)-1H-1,2,3-triazol-4-yl)(2,6-dimethylpyridin-3-yl)methyl)amino)-4-(neopentylamino)quinoline-3,8-dicarbonitrile]: the concentration for a half-maximal effect (EC50) in the assay on TNFα (setting [1]) is 0.066 µM. For the same compound, 0.004 µM corresponded to half-maximal inhibition on Human Cot (IC50 HTRF) (IC50).

For the compound `Cc1nc(C#N)ccc1[C@H](Nc1cc(C#N)c2ncc(C#N)c(NCC(C)(C)C)c2c1)c1cn(C2(C(F)(F)F)CC2)nn1` [Example 830, (S)-6-(((6-cyano-2-methylpyridin-3-yl)(1-(1-(trifluoromethyl)cyclopropyl)-1H-1,2,3-triazol-4-yl)methyl)amino)-4-(neopentylamino)quinoline-3,8-dicarbonitrile], the 50% effective concentration (EC50) in the assay on TNFα (setting [1]) was determined as 0.384 µM. This compound returned an IC50 at Human Cot (IC50 HTRF) of 0.016 µM.

Take `Cc1nc(F)ccc1[C@H](Nc1cc(C#N)c2ncc(C#N)c(NCC3(C(F)(F)F)CCC3)c2c1)c1cn(C2(C(F)F)CC2)nn1` [Example 831, (S)-6-(((1-(1-(difluoromethyl)-cyclopropyl)-1H-1,2,3-triazol-4-yl)(6-fluoro-2-methylpyridin-3-yl)methyl)amino)-4-(((1-(trifluoromethyl)cyclobutyl)methyl)-amino)quinoline-3,8-dicarbonitrile]: in the assay on TNFα (setting [1]), the concentration giving a half-maximal response (EC50) came to 0.202 µM. Moreover, the IC50 against Human Cot (IC50 HTRF) was 0.008 µM.

`Cc1nc(F)ccc1[C@H](Nc1cc(C#N)c2ncc(C#N)c(NCC(C)(C)C(F)(F)F)c2c1)c1cn(C2(C(F)F)CC2)nn1` [Example 832, (S)-6-(((1-(l-(difluoromethyl)-cyclopropyl)-1H-1,2,3-triazol-4-yl)(6-fluoro-2-methylpyridin-3-yl)methyl)amino)-4-((3,3,3-trifluoro-2,2-dimethylpropyl)amino)quinoline-3,8-dicarbonitrile]: in the assay on TNFα (setting [2]), the EC50 turned out to be 0.044 µM. At Human Cot (read-out: IC50 HTRF), the half-inhibitory concentration (IC50) was 0.002 µM.

For the compound `Cc1nc(F)ccc1[C@H](Nc1cc(C#N)c2ncc(C#N)c(NCC(C)(C)C(F)(F)F)c2c1)c1cn(C23CC(C2)C3)nn1` [Example 833, (S)-6-(((1-(bicyclo[1.1.1]pentan-1-yl)-1H-1,2,3-triazol-4-yl)(6-fluoro-2-methylpyridin-3-yl)methyl)amino)-4-((3,3,3-trifluoro-2,2-dimethylpropyl)amino)quinoline-3,8-dicarbonitrile], the EC50 in the assay on TNFα (setting [1]) was determined as 0.022 µM. At Human Cot (IC50 HTRF), this compound yielded an IC50 of 0.002 µM.

For `Cc1nc(F)ccc1[C@H](Nc1cc(C#N)c2ncc(C#N)c(NCC(C)(C)C)c2c1)c1cn(CC(C)(F)F)nn1` [Example 836, (S)-6-(((1-(2,2-difluoropropyl)-1H-1,2,3-triazol-4-yl)(6-fluoro-2-methylpyridin-3-yl)methyl)amino)-4-(neopentylamino)quinoline-3,8-dicarbonitrile], the EC50 in the assay on TNFα (setting [1]) is 0.052 µM. Further, the half-inhibitory concentration (IC50) against Human Cot (IC50 HTRF) was found to be 0.004 µM.

For `CCC(F)(F)Cn1cc([C@@H](Nc2cc(C#N)c3ncc(C#N)c(NCC(C)(C)C)c3c2)c2ccc(F)nc2C)nn1` [Example 837, (S)-6-(((1-(2,2-difluorobutyl)-1H-1,2,3-triazol-4-yl)(6-fluoro-2-methylpyridin-3-yl)methyl)amino)-4-(neopentylamino)quinoline-3,8-dicarbonitrile], the EC50 with TNFα (setting [1]) stood at 0.121 µM. At Human Cot (IC50 HTRF), this compound came in with an IC50 of 0.007 µM.
